Results taken from ChEMBL document CHEMBL3885881, “DrugMatrix”.

Species: Rattus norvegicus
Test: DrugMatrix - Regimen: Daily Repeat
Format: toxicity, organism-based, Sprague-Dawley
Design: regimen Daily Repeat, gender Male, age 6-8 weeks
Settings: in vivo, po, route oral GAVAGE, […]; for ABSOLUTE BASOPHIL / ABSOLUTE EOSINOPHIL / ABSOLUTE LYMPHOCYTE / ABSOLUTE MONOCYTE / ABSOLUTE SEGMENTED NEUTROPHIL / BASOPHIL / EOSINOPHIL / ERYTHROCYTE COUNT / HEMATOCRIT / HEMOGLOBIN / LEUKOCYTE COUNT / LYMPHOCYTE / MEAN CORPUSCULAR HEMOGLOBIN / MEAN CORPUSCULAR HEMOGLOBIN CONCENTRATION / MEAN CORPUSCULAR VOLUME / MONOCYTE / NEUTROPHIL / NUCLEATED RED BLOOD CELLS / PLATELET COUNT: tissue Blood; for ALANINE AMINOTRANSFERASE / ALBUMIN / ALKALINE PHOSPHATASE / ASPARTATE AMINOTRANSFERASE / BLOOD UREA NITROGEN / CARBON DIOXIDE / CHLORIDE / CHOLESTEROL / CREATINE PHOSPHOKINASE / CREATININE / GLUCOSE / LACTATE DEHYDROGENASE / LIPASE / PHOSPHORUS / POTASSIUM / SODIUM / TOTAL BILIRUBIN / TOTAL PROTEIN / URIC ACID: tissue Plasma
[1] = 0 mg/kg, 72 h, dose level Control, time 3 day
[2] = 0 mg/kg, 120 h, dose level Control, time 5 day
[3] = 100 mg/kg, 72 h, dose level Low, time 3 day

## CC(=O)Nc1cccc(O)c1 [METACETAMOL]
[1]
  ABSOLUTE BASOPHIL: 0 CELLS/uL
  ABSOLUTE EOSINOPHIL: 0 CELLS/uL
  ABSOLUTE LYMPHOCYTE: 14687.67 CELLS/uL
  ABSOLUTE MONOCYTE: 164 CELLS/uL
  ABSOLUTE SEGMENTED NEUTROPHIL: 1748.33 CELLS/uL
  BASOPHIL: 0%
  EOSINOPHIL: 0%
  ERYTHROCYTE COUNT: 5.51 x10E6/uL
  HEMATOCRIT: 33.68%
  HEMOGLOBIN: 13.4 G/DL
  LEUKOCYTE COUNT: 16.6 x10E3/uL
  LYMPHOCYTE: 88.83%
  MEAN CORPUSCULAR HEMOGLOBIN: 24.47 pg
  MEAN CORPUSCULAR HEMOGLOBIN CONCENTRATION: 39.82 G/DL
  MEAN CORPUSCULAR VOLUME: 61.23 fL
  MONOCYTE: 0.83%
  NEUTROPHIL: 10.33%
  NUCLEATED RED BLOOD CELLS: 0 /100WBC
  PLATELET COUNT: 1329.67 x10E3/uL
  ALANINE AMINOTRANSFERASE: 61.33 u/L
  ALBUMIN: 4.18 G/DL
  ALKALINE PHOSPHATASE: 332.5 u/L
  ASPARTATE AMINOTRANSFERASE: 98.33 u/L
  BLOOD UREA NITROGEN: 15.83 mg/dL
  CARBON DIOXIDE: 27.83 mmol/L
  CHLORIDE: 100 MEQ/L
  CHOLESTEROL: 76.17 mg/dL
  CREATINE PHOSPHOKINASE: 729.17 u/L
  CREATININE: 0.21 mg/dL
  GLUCOSE: 151.83 mg/dL
  LACTATE DEHYDROGENASE: 484.67 u/L
  LIPASE: 10 u/L
  PHOSPHORUS: 11.3 mg/dL
  POTASSIUM: 6.1 MEQ/L
  SODIUM: 142.9 MEQ/L
  TOTAL BILIRUBIN: 0.23 mg/dL
  TOTAL PROTEIN: 5.68 G/DL
  URIC ACID: 1.75 mg/dL
[2]
  ABSOLUTE BASOPHIL: 0 CELLS/uL
  ABSOLUTE EOSINOPHIL: 58.67 CELLS/uL
  ABSOLUTE LYMPHOCYTE: 15950.83 CELLS/uL
  ABSOLUTE MONOCYTE: 172.5 CELLS/uL
  ABSOLUTE SEGMENTED NEUTROPHIL: 2551.33 CELLS/uL
  BASOPHIL: 0%
  EOSINOPHIL: 0.33%
  ERYTHROCYTE COUNT: 5.5 x10E6/uL
  HEMATOCRIT: 34.05%
  HEMOGLOBIN: 13.42 G/DL
  LEUKOCYTE COUNT: 18.73 x10E3/uL
  LYMPHOCYTE: 84.5%
  MEAN CORPUSCULAR HEMOGLOBIN: 24.42 pg
  MEAN CORPUSCULAR HEMOGLOBIN CONCENTRATION: 39.42 G/DL
  MEAN CORPUSCULAR VOLUME: 61.97 fL
  MONOCYTE: 1%
  NEUTROPHIL: 14.17%
  NUCLEATED RED BLOOD CELLS: 0.33 /100WBC
  PLATELET COUNT: 1143.17 x10E3/uL
  ALANINE AMINOTRANSFERASE: 57 u/L
  ALBUMIN: 4.17 G/DL
  ALKALINE PHOSPHATASE: 347.33 u/L
  ASPARTATE AMINOTRANSFERASE: 93.67 u/L
  BLOOD UREA NITROGEN: 15.67 mg/dL
  CARBON DIOXIDE: 27.17 mmol/L
  CHLORIDE: 104.33 MEQ/L
  CHOLESTEROL: 69.5 mg/dL
  CREATINE PHOSPHOKINASE: 317.17 u/L
  CREATININE: 0.2 mg/dL
  GLUCOSE: 162.33 mg/dL
  LACTATE DEHYDROGENASE: 408.67 u/L
  LIPASE: 10.17 u/L
  PHOSPHORUS: 11.08 mg/dL
  POTASSIUM: 6.36 MEQ/L
  SODIUM: 146.07 MEQ/L
  TOTAL BILIRUBIN: 0.22 mg/dL
  TOTAL PROTEIN: 5.92 G/DL
  URIC ACID: 1.47 mg/dL
[3]
  ABSOLUTE BASOPHIL: 0 CELLS/uL
  ABSOLUTE EOSINOPHIL: 56.67 CELLS/uL
  ABSOLUTE LYMPHOCYTE: 16234.67 CELLS/uL
  ABSOLUTE MONOCYTE: 197 CELLS/uL
  ABSOLUTE SEGMENTED NEUTROPHIL: 1911.67 CELLS/uL
  BASOPHIL: 0%
  EOSINOPHIL: 0.33%
  ERYTHROCYTE COUNT: 5.37 x10E6/uL
  HEMATOCRIT: 33.67%
  HEMOGLOBIN: 13.43 G/DL
  LEUKOCYTE COUNT: 18.4 x10E3/uL
  LYMPHOCYTE: 88.33%
  MEAN CORPUSCULAR HEMOGLOBIN: 25 pg
  MEAN CORPUSCULAR HEMOGLOBIN CONCENTRATION: 39.93 G/DL
  MEAN CORPUSCULAR VOLUME: 62.73 fL
  MONOCYTE: 1%
  NEUTROPHIL: 10.33%
  NUCLEATED RED BLOOD CELLS: 0 /100WBC
  PLATELET COUNT: 1217 x10E3/uL
  ALANINE AMINOTRANSFERASE: 68.67 u/L
  ALBUMIN: 4.23 G/DL
  ALKALINE PHOSPHATASE: 369.67 u/L
  ASPARTATE AMINOTRANSFERASE: 101.67 u/L
  BLOOD UREA NITROGEN: 14.67 mg/dL
  CARBON DIOXIDE: 31 mmol/L
  CHLORIDE: 100.67 MEQ/L
  CHOLESTEROL: 76.33 mg/dL
  CREATINE PHOSPHOKINASE: 371.33 u/L
  CREATININE: 0.22 mg/dL
  GLUCOSE: 142.67 mg/dL
  LACTATE DEHYDROGENASE: 561.67 u/L
  LIPASE: 10.33 u/L
  PHOSPHORUS: 11.3 mg/dL
  POTASSIUM: 6.59 MEQ/L
  SODIUM: 143.83 MEQ/L
  TOTAL BILIRUBIN: 0.23 mg/dL
  TOTAL PROTEIN: 5.8 G/DL
  URIC ACID: 1.7 mg/dL
